The target of this assay is F508delCFTR (Homo sapiens, UniProt P13569, DEL508-508). As to the kind of experiment: Cell Surface Expression-Horse Radish Peroxidase (CSE-HRP) assay. In kind it is cell-based. Also noted: expressed in transfected cells; host or cells: CFBE41o- human lung derived epithelial cell line, doxycycline-inducible. To be noted: CFBE4lo-F508delCFTR-HRP cells; for EC50: 18-24 hours at 33° C., 8-point curve, highest concentration 20 μM, luminescence readout; for Emax: maximum % activity at any tested concentration, normalized to on-plate positive control (3 μM Example 1). In a few lines:
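Following 18-24 h compound exposure at 33° C. Expression was doxycycline-induced beforehand. % activity versus DMSO and a 3 μM corrector control gave maximum activity and EC50 from a variable-Hill sigmoidal fit.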

Drawing on US9642831B2, “Substituted chromanes and method of use” (AbbVie S.á.r.l., priority 2014, dated 2017), this text covers EC50 and Emax for 23 compounds.

SMILES strings stand for the structures. A value given as a limit tells only on which side of the number the result lay.

Sequence of F508delCFTR (P13569 with tags, fused parts or gaps DEL508-508): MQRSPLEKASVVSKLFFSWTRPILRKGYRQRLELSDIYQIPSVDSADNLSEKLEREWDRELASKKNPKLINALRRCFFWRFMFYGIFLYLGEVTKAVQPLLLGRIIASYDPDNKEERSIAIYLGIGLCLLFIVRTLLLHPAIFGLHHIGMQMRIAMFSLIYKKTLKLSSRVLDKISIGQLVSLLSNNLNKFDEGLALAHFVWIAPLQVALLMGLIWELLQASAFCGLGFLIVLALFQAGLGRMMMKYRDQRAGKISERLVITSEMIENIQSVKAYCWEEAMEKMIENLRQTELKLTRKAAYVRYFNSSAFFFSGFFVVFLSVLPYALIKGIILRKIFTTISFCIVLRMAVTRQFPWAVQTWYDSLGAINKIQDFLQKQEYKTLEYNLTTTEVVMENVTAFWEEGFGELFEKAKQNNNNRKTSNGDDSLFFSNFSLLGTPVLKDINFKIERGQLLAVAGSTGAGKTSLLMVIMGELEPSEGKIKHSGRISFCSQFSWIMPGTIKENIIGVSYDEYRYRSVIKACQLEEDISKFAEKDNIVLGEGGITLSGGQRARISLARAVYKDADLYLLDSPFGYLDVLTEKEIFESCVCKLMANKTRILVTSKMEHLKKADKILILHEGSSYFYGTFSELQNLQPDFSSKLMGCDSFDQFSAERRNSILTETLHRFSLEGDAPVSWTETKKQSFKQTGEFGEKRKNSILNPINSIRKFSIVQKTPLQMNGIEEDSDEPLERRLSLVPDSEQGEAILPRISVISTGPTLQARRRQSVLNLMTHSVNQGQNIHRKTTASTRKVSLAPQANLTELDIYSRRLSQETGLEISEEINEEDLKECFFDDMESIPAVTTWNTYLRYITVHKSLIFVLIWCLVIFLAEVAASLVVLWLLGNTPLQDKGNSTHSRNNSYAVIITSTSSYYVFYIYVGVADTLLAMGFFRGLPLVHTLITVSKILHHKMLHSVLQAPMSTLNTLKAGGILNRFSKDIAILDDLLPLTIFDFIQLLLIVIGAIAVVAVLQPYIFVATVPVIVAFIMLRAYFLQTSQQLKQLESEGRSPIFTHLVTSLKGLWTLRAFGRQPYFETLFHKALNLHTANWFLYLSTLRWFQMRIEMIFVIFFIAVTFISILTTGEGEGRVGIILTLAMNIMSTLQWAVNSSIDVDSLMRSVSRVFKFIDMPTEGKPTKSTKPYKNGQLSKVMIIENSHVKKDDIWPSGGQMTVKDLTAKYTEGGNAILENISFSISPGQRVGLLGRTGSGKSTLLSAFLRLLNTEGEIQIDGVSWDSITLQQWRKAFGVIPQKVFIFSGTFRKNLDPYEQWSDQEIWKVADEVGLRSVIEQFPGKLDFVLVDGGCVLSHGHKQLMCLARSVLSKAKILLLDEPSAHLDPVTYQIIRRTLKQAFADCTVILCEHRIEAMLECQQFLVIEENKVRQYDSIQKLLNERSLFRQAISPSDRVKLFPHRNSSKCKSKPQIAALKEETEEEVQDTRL

With `COC(=O)c1cccc([C@H]2C[C@@H](NC(=O)C3(c4ccc5c(c4)OC(F)(F)O5)CC3)c3ccc(OCc4ccccc4)cc3O2)c1` [Example 95, methyl 3-[(2R,4R)-7-(benzyloxy)-4-({[1-(2,2-difluoro-1,3-benzodioxol-5-yl)cyclopropyl]carbonyl}amino)-3,4-dihydro-2H-chromen-2-yl]benzoate], the EC50 (usually the midpoint of the concentration-response curve) stood at 0.92 µM and the Emax (in general, the greatest response seen or fitted, relative to the assay's reference) was 98%.

The compound `O=C(O)COc1ccc2c(c1)O[C@@H](c1cccc(C(=O)O)c1)C[C@H]2NC(=O)C1(c2ccc3c(c2)OC(F)(F)O3)CC1` [Example 96, 3-[(2R,4R)-7-(carboxymethoxy)-4-({[1-(2,2-difluoro-1,3-benzodioxol-5-yl)cyclopropyl]carbonyl}amino)-3,4-dihydro-2H-chromen-2-yl]benzoic acid] came in with an EC50 not below 20 µM and an Emax of 15%.

`COCCOc1ccc2c(c1)O[C@@H](c1cccc(C(=O)O)c1)C[C@H]2NC(=O)C1(c2ccc3c(c2)OC(F)(F)O3)CC1` [Example 97, 3-[(2R,4R)-4-({[1-(2,2-difluoro-1,3-benzodioxol-5-yl)cyclopropyl]carbonyl}amino)-7-(2-methoxyethoxy)-3,4-dihydro-2H-chromen-2-yl]benzoic acid] had an EC50 of 0.38 µM and an Emax of 90%.

As to `O=C(O)c1cccc([C@H]2C[C@@H](NC(=O)C3(c4ccc5c(c4)OC(F)(F)O5)CC3)c3ccc(OCc4ccccc4)cc3O2)c1` [Example 98, 3-[(2R,4R)-7-(benzyloxy)-4-({[1-(2,2-difluoro-1,3-benzodioxol-5-yl)cyclopropyl]carbonyl}amino)-3,4-dihydro-2H-chromen-2-yl]benzoic acid], a half-maximal response (EC50) required 0.57 µM and the Emax stood at 102%.

The compound `O=C(NC1CC2(CCN(C[C@@H](O)CO)CC2)Oc2cc(F)ccc21)C1(c2ccc3c(c2)OC(F)(F)O3)CC1` (stereo partly drawn) [Example 99, 1-(2,2-difluoro-1,3-benzodioxol-5-yl)-N-{1′-[(2R)-2,3-dihydroxypropyl]-7-fluoro-3,4-dihydrospiro[chromene-2,4′-piperidin]-4-yl}cyclopropanecarboxamide] returned an EC50 of 3.89 µM and an Emax of 56%.

`O=C(OCc1ccccc1)N1CC2(CC(NC(=O)C3(c4ccc5c(c4)OC(F)(F)O5)CC3)c3ccc(F)cc3O2)C1` (stereo not shown) [Example 100, benzyl 4′-({[1-(2,2-difluoro-1,3-benzodioxol-5-yl)cyclopropyl]carbonyl}amino)-7′-fluoro-3′,4′-dihydro-1H-spiro[azetidine-3,2′-chromene]-1-carboxylate] showed an EC50 of 3.08 µM and an Emax of 40%.

For the compound `CS(=O)(=O)N1CCC2(CC1)CC(NC(=O)C1(c3ccc4c(c3)OC(F)(F)O4)CC1)c1ccc(F)cc1O2` (stereo not shown) [Example 101, 1-(2,2-difluoro-1,3-benzodioxol-5-yl)-N-[7-fluoro-1′-(methylsulfonyl)-3,4-dihydrospiro[chromene-2,4′-piperidin]-4-yl]cyclopropanecarboxamide], a half-maximal effect (EC50) was put at 6.65 µM and the Emax was 60%.

As to `CC(=O)N1CCC2(CC1)CC(NC(=O)C1(c3ccc4c(c3)OC(F)(F)O4)CC1)c1ccc(F)cc1O2` (stereo not shown) [Example 102, N-(1′-acetyl-7-fluoro-3,4-dihydrospiro[chromene-2,4′-piperidin]-4-yl)-1-(2,2-difluoro-1,3-benzodioxol-5-yl)cyclopropanecarboxamide], the EC50 amounted to 4.86 µM and the Emax is 89%.

As for `O=C(NC1CC2(CNC2)Oc2cc(F)ccc21)C1(c2ccc3c(c2)OC(F)(F)O3)CC1` (stereo not shown) [Example 103, 1-(2,2-difluoro-1,3-benzodioxol-5-yl)-N-(7′-fluoro-3′,4′-dihydrospiro[azetidine-3,2′-chromen]-4′-yl)cyclopropanecarboxamide], the EC50 turned out to be 8.53 µM and the Emax is 28%.

Turning to `CS(=O)(=O)N1CC2(CC(NC(=O)C3(c4ccc5c(c4)OC(F)(F)O5)CC3)c3ccc(F)cc3O2)C1` (stereo not shown) [Example 104, 1-(2,2-difluoro-1,3-benzodioxol-5-yl)-N-[7′-fluoro-1-(methylsulfonyl)-3′,4′-dihydrospiro[azetidine-3,2′-chromen]-4′-yl]cyclopropanecarboxamide], the EC50 came to 6.58 µM and the Emax came to 49%.

Compound `CC(=O)N1CC2(CC(NC(=O)C3(c4ccc5c(c4)OC(F)(F)O5)CC3)c3ccc(F)cc3O2)C1` (stereo not shown) [Example 105, N-(1-acetyl-7′-fluoro-3′,4′-dihydrospiro[azetidine-3,2′-chromen]-4′-yl)-1-(2,2-difluoro-1,3-benzodioxol-5-yl)cyclopropanecarboxamide] gave an EC50 of 7.46 µM and an Emax of 34%.

Consider `O=C(O)c1cccc([C@H]2C[C@@H](NC(=O)C3(c4ccc5c(c4)OC(F)(F)O5)CC3)c3ccc(OCCF)cc3O2)c1` [Example 106, 3-[(2R,4R)-4-({[1-(2,2-difluoro-1,3-benzodioxol-5-yl)cyclopropyl]carbonyl}amino)-7-(2-fluoroethoxy)-3,4-dihydro-2H-chromen-2-yl]benzoic acid], for which the EC50 was determined as 0.31 µM and the Emax came out at 88%.

In turn, `COc1ccc2c(c1)OC1(CCN(C(=O)C(C)(C)CO)CC1)CC2NC(=O)C1(c2ccc3c(c2)OC(F)(F)O3)CC1` (stereo not shown) [Example 107, 1-(2,2-difluoro-1,3-benzodioxol-5-yl)-N-[1′-(3-hydroxy-2,2-dimethylpropanoyl)-7-methoxy-3,4-dihydrospiro[chromene-2,4′-piperidin]-4-yl]cyclopropanecarboxamide] registered an EC50 of 1.13 µM and an Emax of 99%.

The compound `COC(=O)c1ccc([C@H]2C[C@@H](NC(=O)C3(c4ccc5c(c4)OC(F)(F)O5)CC3)c3ccc(OC)cc3O2)cc1` [Example 110, methyl 4-[(2R,4R)-4-({[1-(2,2-difluoro-1,3-benzodioxol-5-yl)cyclopropyl]carbonyl}amino)-7-methoxy-3,4-dihydro-2H-chromen-2-yl]benzoate] displayed an EC50 of 0.28 µM and an Emax of 115%.

Turning to `COc1ccc2c(c1)OC(C1CNC1)CC2NC(=O)C1(c2ccc3c(c2)OC(F)(F)O3)CC1` (stereo not shown) [Example 116, N-[2-(azetidin-3-yl)-7-methoxy-3,4-dihydro-2H-chromen-4-yl]-1-(2,2-difluoro-1,3-benzodioxol-5-yl)cyclopropanecarboxamide], the EC50 was determined as 7.64 µM and the Emax came to 59%.

`COC(=O)c1ccc([C@H]2C[C@@H](NC(=O)C3(c4ccc5c(c4)OC(F)(F)O5)CC3)c3ccccc3O2)cc1` [Example 120, methyl 4-[(2R,4R)-4-({[1-(2,2-difluoro-1,3-benzodioxol-5-yl)cyclopropyl]carbonyl}amino)-3,4-dihydro-2H-chromen-2-yl]benzoate] returned an EC50 of 0.5 µM and an Emax of 110%.

Turning to `COC(=O)c1ccc([C@H]2C[C@@H](NC(=O)C3(c4ccc5c(c4)OC(F)(F)O5)CC3)c3ccc(OC(F)F)cc3O2)cc1` [Example 123, methyl 4-[(2R,4R)-4-({[1-(2,2-difluoro-1,3-benzodioxol-5-yl)cyclopropyl]carbonyl}amino)-7-(difluoromethoxy)-3,4-dihydro-2H-chromen-2-yl]benzoate], the half-maximal effective concentration (EC50) stood at 0.05 µM and the Emax turned out to be 115%.

`CC1(C)CC(NC(=O)C2(c3ccc4c(c3)OC(F)(F)O4)CC2)c2ccc(O)cc2O1` (stereo not shown) [Example 124, 1-(2,2-difluoro-1,3-benzodioxol-5-yl)-N-(7-hydroxy-2,2-dimethyl-3,4-dihydro-2H-chromen-4-yl)cyclopropanecarboxamide] came in with an EC50 of 6.76 µM and an Emax of 26%.

In turn, `CC1(C)CC(NC(=O)C2(c3ccc4c(c3)OC(F)(F)O4)CC2)c2ccc(OC(F)F)cc2O1` (stereo not shown) [Example 125, 1-(2,2-difluoro-1,3-benzodioxol-5-yl)-N-[7-(difluoromethoxy)-2,2-dimethyl-3,4-dihydro-2H-chromen-4-yl]cyclopropanecarboxamide] gave an EC50 of 2.14 µM and an Emax of 115%.

The compound `COc1ccc2c(c1)OC(C1CCCO1)CC2NC(=O)C1(c2ccc3c(c2)OC(F)(F)O3)CC1` (stereo not shown) [Example 126, 1-(2,2-difluoro-1,3-benzodioxol-5-yl)-N-[7-methoxy-2-(tetrahydrofuran-2-yl)-3,4-dihydro-2H-chromen-4-yl]cyclopropanecarboxamide] registered an EC50 of 1.38 µM and an Emax of 79%.

Consider `COC(=O)c1ccc([C@H]2C[C@@H](NC(=O)C3(c4ccc5c(c4)OC(F)(F)O5)CC3)c3ccc(O)cc3O2)cc1` [Example 127, methyl 4-[(2R,4R)-4-({[1-(2,2-difluoro-1,3-benzodioxol-5-yl)cyclopropyl]carbonyl}amino)-7-hydroxy-3,4-dihydro-2H-chromen-2-yl]benzoate], for which the EC50 is 2.81 µM and the Emax came out at 65%.

For `O=C(O)c1ccc([C@H]2C[C@@H](NC(=O)C3(c4ccc5c(c4)OC(F)(F)O5)CC3)c3ccc(O)cc3O2)cc1` [Example 128, 4-[(2R,4R)-4-({[1-(2,2-difluoro-1,3-benzodioxol-5-yl)cyclopropyl]carbonyl}amino)-7-hydroxy-3,4-dihydro-2H-chromen-2-yl]benzoic acid], a half-maximal effect (EC50) was put at 4.57 µM and the Emax was found to be 66%.

For `COc1ccc2c(c1)OC1(CC(C(=O)O)C1)CC2NC(=O)C1(c2ccc3c(c2)OC(F)(F)O3)CC1` (stereo not shown) [Example 129, 4-({[1-(2,2-difluoro-1,3-benzodioxol-5-yl)cyclopropyl]carbonyl}amino)-7-methoxy-3,4-dihydrospiro[chromene-2,1′-cyclobutane]-3′-carboxylic acid], the concentration for a half-maximal effect (EC50) was found to be 6.2 µM and the Emax was determined as 44%.
